ChEMBL document CHEMBL4130350, “Discovery, mechanism and metabolism studies of 2,3-difluorophenyl-linker-containing PARP1 inhibitors with enhanced in vivo efficacy for cancer therapy” (Eur J Med Chem, 2017)
pIC50: −log10 of the molar value.

Experiments:
[1] = tested on: V79; test: Cytotoxicity against BRCA2 expressing Chinese hamster V79 cells after 3 days by CCK8 or SRB assay; assay type: cell-based; conditions: Cricetulus griseus, V79, 72 h
[2] = Cytotoxicity against BRCA2 deficient Chinese hamster VC8 cells after 3 days by CCK8 or SRB assay; assay type: functional, cell-based; conditions: Cricetulus griseus, V-C8, 72 h
[3] = Solubility of the compound in water after 24 hrs by HPLC analysis; assay type: physicochemical
[4] = biological target: Poly [ADP-ribose] polymerase 1 (Homo sapiens, UniProt P09874); test: Inhibition of PARP1 (unknown origin) by ELISA
Poly [ADP-ribose] polymerase 1, sequence (P09874 whole entry): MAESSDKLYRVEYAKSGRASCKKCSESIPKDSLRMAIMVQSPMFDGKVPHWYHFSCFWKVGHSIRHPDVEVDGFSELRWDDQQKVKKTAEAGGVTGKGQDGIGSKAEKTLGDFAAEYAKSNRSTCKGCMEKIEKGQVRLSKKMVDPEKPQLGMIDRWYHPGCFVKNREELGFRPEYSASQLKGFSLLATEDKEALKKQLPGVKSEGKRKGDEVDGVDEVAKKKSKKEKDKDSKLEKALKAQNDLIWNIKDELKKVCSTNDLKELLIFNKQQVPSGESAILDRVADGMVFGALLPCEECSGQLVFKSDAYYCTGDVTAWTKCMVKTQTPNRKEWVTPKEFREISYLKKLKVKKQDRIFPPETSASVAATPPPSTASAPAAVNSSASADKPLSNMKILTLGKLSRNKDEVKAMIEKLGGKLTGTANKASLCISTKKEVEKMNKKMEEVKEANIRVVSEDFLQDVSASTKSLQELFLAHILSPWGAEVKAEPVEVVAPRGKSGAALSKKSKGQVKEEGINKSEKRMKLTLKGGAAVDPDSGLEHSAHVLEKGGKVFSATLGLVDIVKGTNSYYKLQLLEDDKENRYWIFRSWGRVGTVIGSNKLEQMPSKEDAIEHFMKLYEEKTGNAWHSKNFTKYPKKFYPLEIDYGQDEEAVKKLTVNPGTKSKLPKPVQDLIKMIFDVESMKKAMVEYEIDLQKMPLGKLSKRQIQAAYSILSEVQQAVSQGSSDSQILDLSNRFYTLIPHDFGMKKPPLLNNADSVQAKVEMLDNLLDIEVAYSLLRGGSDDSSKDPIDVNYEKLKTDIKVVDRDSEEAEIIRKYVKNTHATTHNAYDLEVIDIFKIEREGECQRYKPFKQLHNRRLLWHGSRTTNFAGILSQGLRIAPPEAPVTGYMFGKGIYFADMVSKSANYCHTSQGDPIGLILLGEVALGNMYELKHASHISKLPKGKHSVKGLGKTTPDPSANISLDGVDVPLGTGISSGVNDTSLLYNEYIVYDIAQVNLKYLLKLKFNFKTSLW

[5] = tested on: MDA-MB-436; test: Antiproliferative activity against human MDA-MB-436 cells after 7 days by CCK8 or SRB assay; assay type: functional, cell-based; conditions: MDA-MB-436, 168 h
[6] = Retention time in mouse liver microsomes at 2 uM up to 60 mins in presence of NADPH by LC-MS/MS analysis; assay type: ADME, microsome; conditions: 1 h
[7] = Drug level in mouse liver microsomes treated with 2-(4-(2,3-Difluoro-5-((4-oxo-3,4-dihydrophthalazin-1-yl)methyl)benzoyl)pipe-razin-1-yl)nicotinonitrile at 2 uM up to 60 mins by LC-MS/MS analysis; assay type: ADME, microsome; conditions: 1 h

SMILES | pIC50 [1] | pIC50 [2] | pIC50 [4] | pIC50 [5] | further results
N#Cc1ccccc1N1CCN(C(=O)c2cc(Cc3n[nH]c(=O)c4ccccc34)cc(F)c2F)CC1 | 5.36 | 8.06 | 10.70 | > 10.30 | solubility at 24 h [3]: < 0.2 µg/mL
N#Cc1cccnc1NCCN(CCO)C(=O)c1cc(Cc2n[nH]c(=O)c3ccccc23)cc(F)c1F |  |  |  |  | Retention_time [6]: 6.2 min; Drug uptake [7]: Active
N#Cc1cccnc1NCCN(CC(=O)O)C(=O)c1cc(Cc2n[nH]c(=O)c3ccccc23)cc(F)c1F |  |  |  |  | Retention_time [6]: 6.7 min; Drug uptake [7]: Active
O=C(c1cc(Cc2n[nH]c(=O)c3ccccc23)cc(F)c1F)N1CCN(c2cccc(Cl)c2)CC1 | 5.10 | 5.80 | 8.38 | 6.40 | 
O=C(c1ccccc1)N1CCN(C(=O)c2cc(Cc3n[nH]c(=O)c4ccccc34)cc(F)c2F)CC1 |  |  | 8.21 |  | 
O=C(c1cc(Cc2n[nH]c(=O)c3ccccc23)cc(F)c1F)N1CCN(c2ccc([N+](=O)[O-])cc2)CC1 | < 5.00 | 6.69 | 9.40 | 8.03 | 
O=C(c1cc(Cc2n[nH]c(=O)c3ccccc23)cc(F)c1F)N1CCN(Cc2ccccc2)CC1 |  |  | 7.01 |  | 
O=C(c1cc(Cc2n[nH]c(=O)c3ccccc23)cc(F)c1F)N1CCN(c2ncc(C(F)(F)F)cn2)CC1 |  |  | 7.15 |  | 
O=C(c1cc(Cc2n[nH]c(=O)c3ccccc23)cc(F)c1F)N1CCN(C2CCCC2)CC1 | < 5.00 | 6.55 | 8.59 | 7.97 | 
O=C(c1cc(Cc2n[nH]c(=O)c3ccccc23)cc(F)c1F)N1CCN(CC2CC2)CC1 |  |  | 8.01 |  | 
O=C(c1cc(Cc2n[nH]c(=O)c3ccccc23)cc(F)c1F)N1CCN(c2ccncc2)CC1 | < 5.00 | 5.48 | 9.05 | 8.43 | 
O=C(c1cc(Cc2n[nH]c(=O)c3ccccc23)cc(F)c1F)N1CCN(c2ccc(Br)cc2)CC1 |  |  | 7.08 |  | 
COc1ccccc1N1CCN(C(=O)c2cc(Cc3n[nH]c(=O)c4ccccc34)cc(F)c2F)CC1 |  |  | 6.53 |  | 
O=C(c1cc(Cc2n[nH]c(=O)c3ccccc23)cc(F)c1F)N1CCN(C2CCCCC2)CC1 |  |  | 8.46 |  | 
O=C(c1cc(Cc2n[nH]c(=O)c3ccccc23)cc(F)c1F)N1CCN(C2CCCCCC2)CC1 | < 5.00 | 7.37 | 9.10 | 8.22 | 
O=C(c1cc(Cc2n[nH]c(=O)c3ccccc23)cc(F)c1F)N1CCN(C(=O)C2CCCO2)CC1 (stereo not drawn) | < 5.00 | 7.17 | 8.62 | 8.31 | 
O=C(c1cc(Cc2n[nH]c(=O)c3ccccc23)cc(F)c1F)N1CCN(c2nccc(Br)n2)CC1 |  |  | 6.96 |  | 
CCCCN1CCN(C(=O)c2cc(Cc3n[nH]c(=O)c4ccccc34)cc(F)c2F)CC1 | 6.11 | 6.83 | 8.68 | > 10.52 | 
O=C(c1cc(Cc2n[nH]c(=O)c3ccccc23)cc(F)c1F)N1CCN(c2ccc(F)cc2)CC1 | 5.54 | 7.05 | 9.40 | 7.97 | 
Cc1ccc(C(=O)N2CCN(C(=O)c3cc(Cc4n[nH]c(=O)c5ccccc45)cc(F)c3F)CC2)cc1 |  |  | 7.54 |  | 
O=C(c1cc(Cc2n[nH]c(=O)c3ccccc23)cc(F)c1F)N1CCN(c2ccc(O)cc2)CC1 | < 5.00 | 5.40 | 9.22 | 7.57 | 

SMILES | pIC50 [1] | pIC50 [2] | pIC50 [4] | pIC50 [5] | further results
O=C(c1cc(Cc2n[nH]c(=O)c3ccccc23)cc(F)c1F)N1CCN(Cc2cccnc2)CC1 |  |  | 6.80 |  | 
N#Cc1cccc(N2CCN(C(=O)c3cc(Cc4n[nH]c(=O)c5ccccc45)cc(F)c3F)CC2)n1 |  |  | 8.29 |  | 
N#Cc1ccc(N2CCN(C(=O)c3cc(Cc4n[nH]c(=O)c5ccccc45)cc(F)c3F)CC2)cc1 |  |  | 8.27 |  | 
O=C(c1cc(Cc2n[nH]c(=O)c3ccccc23)cc(F)c1F)N1CCN(c2nccs2)CC1 | < 5.00 | 6.86 | 9.70 | 8.20 | 
O=C(c1cc(Cc2n[nH]c(=O)c3ccccc23)cc(F)c1F)N1CCN(c2ccccc2O)CC1 | 5.11 | 7.50 | 9.05 | 9.52 | 
O=C(c1cc(Cc2n[nH]c(=O)c3ccccc23)cc(F)c1F)N1CCN(c2ncccn2)CC1 |  |  | 8.54 |  | 
O=C(c1cc(Cc2n[nH]c(=O)c3ccccc23)cc(F)c1F)N1CCN(c2ccccn2)CC1 | 6.03 | > 8.49 | 10.00 | > 10.52 | 
O=C(c1cc(Cc2n[nH]c(=O)c3ccccc23)cc(F)c1F)N1CCN(c2ccccc2)CC1 | 5.22 | 5.71 | 9.30 | 7.08 | 
O=C(c1cc(Cc2n[nH]c(=O)c3ccccc23)cc(F)c1F)N1CCN(C(=O)C2CC2)CC1 |  |  | 7.95 |  | 
COc1ccc(N2CCN(C(=O)c3cc(Cc4n[nH]c(=O)c5ccccc45)cc(F)c3F)CC2)cc1 |  |  | 6.95 |  | 
O=C(c1cc(Cc2n[nH]c(=O)c3ccccc23)cc(F)c1F)N1CCN(c2ncc(Br)cn2)CC1 |  |  | 6.76 |  | 
O=C(c1cc(Cc2n[nH]c(=O)c3ccccc23)cc(F)c1F)N1CCN(c2nsc3ccccc23)CC1 |  |  | 7.28 |  | 
Cc1ccc(N2CCN(C(=O)c3cc(Cc4n[nH]c(=O)c5ccccc45)cc(F)c3F)CC2)cc1 | < 5.00 | 5.68 | > 10.00 | 6.39 | 
O=C(c1cc(Cc2n[nH]c(=O)c3ccccc23)cc(F)c1F)N1CCN(c2ccc(Cl)cc2)CC1 |  |  | 6.99 |  | 
O=C(c1cc(Cc2n[nH]c(=O)c3ccccc23)cc(F)c1F)N1CCN(C(=O)N2CCOCC2)CC1 | < 5.00 | 6.03 | 8.64 | 7.59 | 
O=C(c1cc(Cc2n[nH]c(=O)c3ccccc23)cc(F)c1F)N1CCN(c2cccc(C(F)(F)F)c2)CC1 | < 5.00 | 6.20 | 9.10 | 7.63 | 
O=C(c1cc(Cc2n[nH]c(=O)c3ccccc23)cc(F)c1F)N1CCN(c2ccccc2F)CC1 |  |  | 7.25 |  | 
Cc1ccc(Cl)cc1N1CCN(C(=O)c2cc(Cc3n[nH]c(=O)c4ccccc34)cc(F)c2F)CC1 |  |  | 6.49 |  | 
CCN1CCN(C(=O)c2cc(Cc3n[nH]c(=O)c4ccccc34)cc(F)c2F)CC1 | < 5.00 | 6.01 | 8.85 | 7.89 | 
CC(=O)N1CCN(C(=O)c2cc(Cc3n[nH]c(=O)c4ccccc34)cc(F)c2F)CC1 |  |  | 8.15 |  | 
